Experimental data published in patent EP0455830B1, “MEDICINE CONTAINING THIAZINE DIOXIDE DERIVATIVE” (NIPPON HYPOX LABORATORIES INCORPORATED, priority 1989, dated 1991).
“And” between values parts separate entries of the source, which are not always exact repeats. Equal entries are not always repeated. Where two headings read alike, the source gives them in different places.

Legend:
[1] = test system: nephritis caused by cisplatin; experiment: Effect on nephritis caused by cisplatin - 2 (Example 3); assay type: in vivo, female Fischer rats; conditions: with cisplatin 1 mg/kg hypodermically for 8 days, 24 h after final administration
Procedure: Effect on nephritis caused by cisplatin - 2
Six female Fischer rats (8 weeks of age) per group were administered hypodermically with 1 mg/kg of cisplatin for 8 days, and at the same time, HX-1920 was administered orally in a dose of 10 mg or 100 mg/kg. In both the administrations, the blood urea nitrogen (BUN) and creatinine measured 24 hours after the final administration tended to show lower values. […]

[2] = test system: vomiting caused by cisplatin; experiment: Effect on inhibition of vomiting caused by cisplatin -1 (Example 6), degree of vomiting per dog; assay type: in vivo; parameters: key: III: Extreme; II: Moderate; I: Slight; 0: No vomiting; conditions: 20 mg/kg p.o. (capsule) 30 min before i.v. cisplatin; individual dogs
Procedure: Effect on inhibition of vomiting caused by cisplatin -1
Five dogs (7 - 12.5 kg) per group were admininistered intravenously with 0.4 mg/kg of cisplatin per day for the initial 3 days and with 0.8 mg/kg of cisplatin per day for the subsequent 1 day. HX-1920 in a dose of 20 mg/kg was encapsulated and administered 30 minutes before the intravenous administration of cisplatin. Separately, Nauzelin (trade name, manufactured by Kyowa Hakko Kogyo Co., Ltd.), which was a domperidone type antiemetic, was administered to another group of five dogs in a dose of 2 mg/kg for 7 days. […] The vomiting was cured after 24 hours. However, the same symptom was repeatedly manifested when cisplatin was administered. […] Thus, the effect of HX-1920 on the alleviation of the vomit-inducing activity of the carcinostatic cisplatin was evident.

[3] = test system: stomach contraction caused by cisplatin; experiment: Effect on inhibition of stomach contraction caused by cisplatin (Example 8); assay type: in vivo, female Fischer rats; conditions: with cisplatin 2 mg/kg subcutaneously once a day for 4 days
Procedure: Effect on inhibition of stomach contraction caused by cisplatin
Cisplatin in a dose of 2 mg/kg was administered subcutaneously into female Fischer rats (5 weeks of age) once a day for 4 days, and at the same time, HX-1920 was administered intraperitoneally or orally.
[…] For the cisplatin non-administered group and the cisplatin administered vehicle control group, 1 ml/day of a 1 % gum arabic solution was administered per rat.

[4] = test system: nephritis caused by cisplatin; experiment: Effect on nephritis caused by cisplatin - 4 (Example 5); assay type: in vivo, female F344 rats; conditions: for BUN / Creatinine: cisplatin 1 mg/kg hypodermically for 8 days, 24 h after final cisplatin; for inhibition at 100 mg/kg: Rattus norvegicus, po, 100 mg/kg p.o., inhibition of the cisplatin-induced increase
Procedure: Effect on nephritis caused by cisplatin - 4
Six to seven female F344 rats per group weighing about 150 g, per group, were administered hypodermically in the dorsal portion with 1 mg/kg of cisplatin dissolved in a physiological saline solution once a day over 8 days. Twenty-four hours after the final administration of the cisplatin, the rats were anesthtized with ether, and the blood was collected from each rat, centrifuged and measured for blood urea nitrogen (BUN) and creatinine with an autoanalyzer Olympus AU-550.
HX-1920 which was a substance to be tested was dissolved in a 2.5 % NaHCO₃, and the resultant solution was administered orally in a dose of 10 or 100 mg/kg over 8 days immediately before the administration of the cisplatin.
The increases in BUN and creatinine by the administration of cisplatin are considered to be characteristics in acute renal failure. […]

[5] = test system: vomiting induced by the cisplatin; experiment: Effect on inhibition of vomiting caused by cisplatin -2 (Example 7), manifestation ratio; assay type: in vivo, mongrel dogs
Procedure: Effect on inhibition of vomiting caused by cisplatin -2
Female and male mongrel dogs weiging about 10 kg were administered intravenously with 0.4 mg/kg/day of cisplatin dissolved in a physiological saline solution for the initial 3 days and with 0.8 mg/kg/day of cisplatin for the subsequent 4 days to examine the effects of substances to be tested on the basis of a manifestation ratio, as an index, of vomiting induced by the cisplatin.
HX-1920, which was a substance to be tested, was dissolved in a 10 % Nikkol solution (Nikkol: trade name, dissolving aid manufactured by Nikko Chemical Co., Ltd.) containing 1 % NaHCO₃, and put into gelatin soft capsules, and the capsules were administered orally 30 minutes before the administration of cisplatin.
In addition, as a known domperidone type antiemetic, a 1 % Nauzelin powder was put into gelatin soft capsules, and administered orally 30 minutes before the administration of cisplatin.

[6] = test system: nephritis caused by cisplatin; experiment: Effect on nephritis caused by cisplatin -1 (Example 2); assay type: in vivo, female Fischer rats; conditions: with cisplatin 2 mg/kg hypodermically for 5 days, 24 h after final administration
Procedure: Effect on nephritis caused by cisplatin -1
Five female Fischer rats (5 weeks of age) per group were administered hypodermically with 2 mg/kg of cisplatin for 5 days, and at the same time, HX-1920 was administered orally in a dose of 50 mg or 150 mg/kg, or administered intraperitoneally in a dose of 10 or 30 mg/kg. Twenty-four hours after the final administration, the rats were sacrificed, and their blood urea nitrogen (BUN) and creatinine were measured.

[7] = test system: nephritis caused by cisplatin; experiment: Effect on nephritis caused by cisplatin - 3 (Example 4), BUN and survival; assay type: in vivo, male ICR rats; conditions: with cisplatin 3 mg/kg subcutaneously for 4 days
Procedure: Effect on nephritis caused by cisplatin - 3
Ten male ICR rats (8 weeks of age) per group were administered subcutaneously with 3 mg/kg of cisplatin for 4 days, and at the same, HX-1920 was orally administered in a dose of 100 mg/kg. Sixteen hours after the final administration, 5 rats of each group were measured for blood urea nitrogen (BUN), and the survival ratios of the remaining 5 rats of each group for the subsequent 5 days were examined. […] Thus, the effect of the administration of HX-1920 on the alleviation of renal dysfunctions was observed. […]

[8] = 10 mg/kg/day p.o. in 2.5 % NaHCO3 over 8 days
[9] = 100 mg/kg/day p.o. in 2.5 % NaHCO3 over 8 days
[10] = 20 mg/kg orally in capsules 30 min before i.v. cisplatin (0.4 mg/kg/day 3 days, then 0.8 mg/kg/day 4 days)

With `CN1C(C(=O)Nc2ccccc2-c2nnn[nH]2)=C(O)c2ccccc2S1(=O)=O` [HX-1920, 4-hydroxy-2-methyl-N-(2-(1H-tetrazol-5-yl)phenyl)2H-1,2-benzothiazine-3-carboxamide-1,1-dioxide] the BUN ([1]; 10 mg/kg/day p.o.) was 51.1 ± 16.5 mg/dL, the Creatinine ([1]; 10 mg/kg/day p.o.) was 1.15 ± 0.29 mg/dL and the BUN ([1]; 100 mg/kg/day p.o.) was 38.0 ± 6.4 mg/dL. For the same compound, the Creatinine ([1]; 100 mg/kg/day p.o.) was 0.96 ± 0.05 mg/dL, the “Degree of vomiting 5th day” value [2] was 0 (4×) and I and the “Degree of vomiting 6th day” value [2] was “I (2×) and 0 (3×)”. The “Degree of vomiting 7th day” value [2] was “I (3×) and 0 (2×)”, the “Diameter of center of stomach” value ([3]; 10 mg/kg i.p.) was 0.97±0.07 mm and the “Diameter of center of stomach” value ([3]; 30 mg/kg i.p.) was 1.18±0.07 mm. The “Diameter of center of stomach” value ([3]; 150 mg/kg p.o.) was 1.14±0.07 mm, the “inhibition activity against increase in BUN and creatinine (in words)” value ([4]; 10 mg/kg p.o.) was “did not exhibit clear inhibition activity” and the BUN [4, 8] was 51.1 ± 16.5 mg/dL. It also gave a Creatinine [4, 8] of 1.15 ± 0.29 mg/dL, a BUN [4, 9] of 38.0 ± 6.1 mg/dL and a Creatinine [4, 9] of 0.96 ± 0.05 mg/dL. The inhibition at 100 mg/kg ([4]; read-out: inhibition activity in BUN) was 38%, the inhibition at 100 mg/kg ([4]; read-out: inhibition activity in creatinine) was 25% and the “Vomiting manifestation ratio (%) 4th day” value [5, 10] was 29.4%. The “Vomiting manifestation ratio (%) 5th day” value [5, 10] was 23.5%, the “Vomiting manifestation ratio (%) 6th day” value [5, 10] was 29.4% and the “Vomiting manifestation ratio (%) 7th day” value [5, 10] was 52.9%. For the same compound, the “manifestation of vomiting (in words)” value ([5]; 20 mg/kg orally, compared with the vehicle control group) was “clearly inhibited”, the BUN ([6]; 10 mg/kg/day i.p.) was 102.8 ± 29.5 mg/dL and the Creatinine ([6]; 10 mg/kg/day i.p.) was 0.70 ± 0.04 mg/dL. It also gave a BUN ([6]; 30 mg/kg/day i.p.) of 69.6 ± 22.2 mg/dL, a Creatinine ([6]; 30 mg/kg/day i.p.) of 0.65 ± 0.04 mg/dL and a BUN ([6]; 50 mg/kg/day p.o.) of 138.1 ± 47.6 mg/dL. The Creatinine ([6]; 50 mg/kg/day p.o.) was 0.83 ± 0.31 mg/dL, the BUN ([6]; 150 mg/kg/day p.o.) was 91.1 ± 58.6 mg/dL and the Creatinine ([6]; 150 mg/kg/day p.o.) was 0.65 ± 0.11 mg/dL. The “survival (in words)” value ([7]; 100 mg/kg p.o., subsequent 5 days, all vehicle control rats died) was “all of the five rats of the HX-1920 administered group survived”, the BUN ([7]; 100 mg/kg/day p.o., 16 h after final administration) was 78.3 ± 45.7 mg/dL and the Survival ratio ([7]; 100 mg/kg/day p.o., survival over the subsequent 5 days) was 100%.
